Measurements published in the METLIN SMRT retention time set (Domingo-Almenara et al. 2019).

Assay: gradient 5% acetonitrile 3 min, to 50% in 2 min, to 85% in 15 min, held 3 min, 100 µL/min
Conditions: column: Zorbax Extend-C18 2.1 x 50 mm; eluents: water / acetonitrile, 0.1% formic acid
How it was run: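 Pure standards were run in mixtures of ~100 molecules by HPLC coupled to a quadrupole time-of-flight mass spectrometer. The column was a Zorbax Extend-C18 (2.1 × 50 mm, 1.8 μm) at 100 μL/min, with water and acetonitrile each containing 0.1% formic acid, in positive and negative ionization mode. Dead and dwell volumes were 40 μL and 900 μL. Retention time was taken from computationally picked adduct peaks, each manually inspected, with data collected over 3 months.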

Point of comparison: `CSc1ccc(CNC(=O)C2CCCN(c3ncnc4c3oc3ccccc34)C2)cc1` (centres undefined), RP-LC retention time 786 s. Against it:
- COC(=O)c1c(C)[nH]c(C(=O)N2CCC(CC(=O)NCc3ccc4c(c3)OCO4)CC2)c1C — lower, 770 s
- Cc1ccc(-c2noc(CCN3CCN(C)CC3)n2)cc1 — lower, 630 s
- CCN1CCn2cc(S(=O)(=O)Nc3ccc(C)cc3F)cc2C1=O — lower, 725 s
- CC(=O)C1=C(O)C(=O)N(C(C)c2ccccc2)C1c1ccccc1 (centres undefined) — higher, 836 s
- CC(=O)c1ccc(NC(=O)C2CCCN(c3nc(C)nc4oc(C)c(C)c34)C2)cc1 (centres undefined) — higher, 839 s
- COCCN1CCn2cc(S(=O)(=O)Nc3cccc(OC)c3)cc2C1=O — lower, 670 s
- CC(C)CN1CCn2cc(C(=O)NCC3CCCCC3)nc2C1 — lower, 634 s
- CCC(=O)N1CCCCCCNC(=O)[C@@H]2CCC[C@@H]21 — lower, 657 s
- Clc1ccc(-c2ccnc3nc(-c4ccccc4)nn23)cc1 — higher, 971 s
- O=C(NCC1CC1)c1cn(-c2ccc(S(=O)(=O)N3CCCC3)cn2)cn1 — lower, 762 s
- Cc1nnc2n1CCC(NC(=O)Cc1ccsc1)CC2 (centres undefined) — lower, 573 s
- COc1ccc(Nc2c(-c3ccc(OC)cc3)nc3ncccn23)cc1 — lower, 659 s
- CCn1cc2c3c(cccc31)CN(C(=O)Nc1ccc(C)cc1)CC2 — higher, 978 s
- CCC(C)N(CCNC(=O)c1cc(C)nn1-c1ccccc1)C1CCCCC1 (centres undefined) — lower, 684 s
- O=C(Cn1ccn2nc(-c3ccc(F)cc3)c(CO)c2c1=O)Nc1ccc2c(c1)CCC2 — higher, 908 s
- O=C(NCc1ccccc1)NC1CCN(C(=O)N2C[C@H]3C[C@H](C2)[C@H]2CCCC(=O)N2C3)CC1 — lower, 660 s
- CCCN(CC1CCOC1)C(=O)Nc1ccc(C)c(Cl)c1 (centres undefined) — higher, 959 s
- CCC(=O)Nc1ccc2c(c1)CN(C(=O)c1ccc(Cl)cc1)C(C(=O)N1CCCC1)C2 (centres undefined) — lower, 738 s
- COc1cc(NC(=O)c2cnn(-c3ccc(Br)cc3)c2)cc(OC)c1OC — higher, 931 s
- Cc1cc(NC(=O)c2cccc(NS(=O)(=O)c3ccc(F)cc3)c2)no1 — lower, 736 s
- CCN1CCn2cc(C(=O)NCc3cccc(Br)c3)nc2C1 — lower, 600 s
- CCN(CC)CCNC(=S)Nc1ccc2nc(N3CCN(CC)CC3)cc(C)c2c1 — lower, 493 s
- CCCc1cc(N2CCN(C(=O)C3CCC3)CC2)nc2nnc(C)n12 — lower, 614 s
- CC1CCCN(c2ccc(NC(=O)C(C)C)c(C(=O)O)c2)C1 (centres undefined) — lower, 627 s
- Cc1ccc(CS(=O)(=O)N2CCc3nc(-c4ccc(Cl)cc4)ncc3C2)cc1 — higher, 1210 s
- CC(C)N1C(=O)c2cccnc2Sc2cc(NC(=O)c3ccc(Cl)s3)ccc21 — higher, 975 s
- O=C(CSc1ncccn1)Nc1nc(-c2ccccc2)c(-c2ccccc2)o1 — higher, 905 s
- Cc1cccc(CNC(=O)c2nnc(-c3ccc(S(=O)(=O)N4CCC(C)CC4)cc3)o2)c1 — higher, 1100 s
- CC1=C(c2ccc(F)cc2)S(=O)(=O)N=C1N1CCC(NC(=O)NC(C)C)CC1 — higher, 861 s
- O=S(=O)(c1ccccc1Cl)N1CC(F)(F)C[C@H]1COc1cccnc1 — lower, 731 s
- Cc1ccc(Nc2nc(C(=O)NC3CCCCCC3)nc3ccccc23)cc1 — higher, 966 s
- COCCCNC(=O)CCc1cn(Cc2ccccc2F)c2ccccc12 — higher, 909 s
- CC(NC(=O)c1ccco1)c1nc(-c2ccc3c(c2)ncn3C2CCCC2)no1 (centres undefined) — lower, 674 s
- O=C(c1ccc(OCC2CCCN2C(=O)c2ccccc2)cc1)N1CCCC1 (centres undefined) — higher, 789 s
- CCNC(=O)N1CC(c2nc(-c3ccccc3)no2)C2(CCOCC2)C1 (centres undefined) — lower, 728 s
- CNC(=O)c1sc2nc(-c3cccc(OC)c3)c(NC(C)(C)C)n2c1C — lower, 780 s
- CN1C(=O)C(c2c[nH]c3ccccc23)=C(c2c[nH]c3ccccc23)C1=O — higher, 868 s
- COc1ccc(NC(=O)N2CCN(c3cc(-c4ccc(OC)c(OC)c4)ncn3)CC2)c(OC)c1 — lower, 660 s
- O=C(NCc1ccco1)C1CCCN(c2nccnc2Sc2ccccc2)C1 (centres undefined) — higher, 880 s
- CN(C)c1cc(OC2CCN(C(=O)c3cccc4[nH]ccc34)C2)ncn1 (centres undefined) — lower, 622 s
- C=CCn1c(=O)c(=O)n(Cc2ccc(C(=O)N3CCN(c4ncccn4)CC3)cc2)c2ccccc21 — lower, 722 s
- CCOC(=O)c1c(C)[nH]c(C(=O)N2CCC(CC(=O)NCc3ccc(N(C)C)cc3)CC2)c1C — lower, 620 s
- CC(C)CC(=O)N1CC(F)(F)C[C@H]1c1nnc(-c2cnccn2)o1 — lower, 703 s
